{"source": "patent US20030096704A1", "about": "“Novel use of herbicides” (priority 2000, published 2003)", "key": {"[1]": {"tested_on": "Echinochloa crus galli (ECHCG)", "assay": "Post-emergence herbicidal action on rice (paddy system): weed control", "type": "in vivo", "details": "8 g/ha, about 21 days", "protocol": "(§1) Post-emergence Herbicidal Action on Rice:\n(§2) Weeds are sown and raised in soil saturated with water in plastics troughs. The rice plants are sown and grown separately from the weeds and after 10 days transplanted into the plastics troughs containing the weeds. The test compounds are then applied to the plants in the form of an aqueous suspension. One day after application, the water level is raised by 3 cm (paddy system).\n(§3) The test plants are then grown on in a greenhouse under optimum conditions. […] For comparison with the prior art, the compound sulfometuron-methyl (known from The Pesticide Manual, 10th ed., the British Crop Protection Council, page 931) is tested. Sulfometuron-methyl belongs to the same class of ALS-inhibitors as the compound of formula I. The compound of formula I and sulfometuron-methyl are tested at a rate of application of 8 g/ha."}, "[2]": {"tested_on": "Cyperus serotinus (CYPSE)", "assay": "Post-emergence herbicidal action on rice (paddy system): weed control", "type": "in vivo", "details": "8 g/ha; leaf stage 3, height 11 cm at application; about 21 days", "protocol": "as §1, §2, §3"}, "[3]": {"tested_on": "Monochoria vaginalis (MOOVA)", "assay": "Post-emergence herbicidal action on rice (paddy system): weed control", "type": "in vivo", "details": "8 g/ha; leaf stage 2, height 1 cm at application; about 21 days", "protocol": "as §1, §2, §3"}, "[4]": {"tested_on": "Rice “Lemont” (conventional rice variety)", "assay": "Post-emergence herbicidal action on rice (paddy system): phytotoxicity on conventional rice", "type": "in vivo, Oryza sativa", "details": "8 g/ha, evaluated after about 21 days, 0% no action, 100% plant completely died", "protocol": "as §1, §2, §3\nThe variety “Lemont” is used as conventional rice variety."}, "[5]": {"tested_on": "Rice ATCC 97523 (ALS-inhibitor-resistant rice variety SPCW-1)", "assay": "Post-emergence herbicidal action on rice (paddy system): phytotoxicity on ALS-inhibitor-resistant rice", "type": "in vivo, Oryza sativa", "details": "8 g/ha, evaluated after about 21 days, 0% no action, 100% plant completely died", "protocol": "as §1, §2, §3\nThe ALS-inhibitor-resistant rice variety used is Oryza sativa, Linnaeus name: SPCW-1, deposited under the number ATCC 97523, depositor: Louisiana State Univ."}}, "data": [{"molecule": "COC(=O)c1ccccc1S(=O)(=O)NC(=O)Nc1nc(C)cc(C)n1", "note": "[sulfometuron-methyl]", "values": [{"measurement": "% Weed control ECHCG 1", "setting": "[1]; Echinochloa crus galli post 1.0 leaf (leaf stage 1.5, height 6 cm at application)", "value": 100, "unit": "%"}, {"measurement": "% Weed control ECHCG 3", "setting": "[1]; Echinochloa crus galli post 3.0 leaf (leaf stage 3, height 25 cm at application)", "value": 98, "unit": "%"}, {"measurement": "% Weed control CYPSE", "setting": "[2]", "value": 95, "unit": "%"}, {"measurement": "% Weed control MOOVA", "setting": "[3]", "value": 100, "unit": "%"}, {"measurement": "% Phytotoxicity Rice “Lemont”", "setting": "[4]", "value": 100, "unit": "%"}, {"measurement": "% Phytotoxicity Rice ATCC 97523", "setting": "[5]", "value": 95, "unit": "%"}]}]}
